Reference: the NIST ThermoML archive (doi:10.1016/j.jct.2009.11.014)

Conditions: Liquid; for mass density: vibrating tube; for viscosity: Stony Brook Scientific falling needle HPHTV-100 viscometer

CCCCn1cc[n+](C)c1.F[B-](F)(F)F [1-butyl-3-methylimidazolium tetrafluoroborate]
Conditions	mass density [kg/m3]	viscosity [mPa·s]
283.15 K, 100 kPa	1212.53	–
283.15 K, 2000 kPa	1213.37	–
283.15 K, 4000 kPa	1214.24	–
283.15 K, 6000 kPa	1215.13	–
283.15 K, 8000 kPa	1216	–
283.15 K, 10000 kPa	1216.89	–
283.15 K, 12000 kPa	1217.77	–
283.15 K, 14000 kPa	1218.63	–
283.15 K, 20000 kPa	1221.2	–
283.15 K, 30000 kPa	1225.42	–
283.15 K, 40000 kPa	1229.49	–
283.15 K, 50000 kPa	1233.46	–
283.15 K, 60000 kPa	1237.32	–
285.05 K, 110 kPa	–	197.8
285.05 K, 14190 kPa	–	236.6
285.15 K, 110 kPa	–	197.5
285.15 K, 660 kPa	–	197.8
285.15 K, 1660 kPa	–	200.2
285.15 K, 2660 kPa	–	202.7
285.15 K, 4070 kPa	–	206.4
285.15 K, 6100 kPa	–	211
285.15 K, 8180 kPa	–	215.4
285.15 K, 10150 kPa	–	220.7
285.15 K, 12050 kPa	–	226.1
288.15 K, 100 kPa	1208.87	–
288.15 K, 2000 kPa	1209.73	–
288.15 K, 4000 kPa	1210.65	–
288.15 K, 6000 kPa	1211.56	–
288.15 K, 8000 kPa	1212.45	–
288.15 K, 10000 kPa	1213.34	–
288.15 K, 12000 kPa	1214.22	–
288.15 K, 14000 kPa	1215.09	–
288.15 K, 20000 kPa	1217.71	–
288.15 K, 30000 kPa	1221.96	–
288.15 K, 40000 kPa	1226.06	–
288.15 K, 50000 kPa	1230.05	–
288.15 K, 60000 kPa	1233.94	–
293.15 K, 100 kPa	1205.25	–
293.15 K, 2000 kPa	1206.11	–
293.15 K, 4000 kPa	1207.04	–
293.15 K, 6000 kPa	1207.96	–
293.15 K, 8000 kPa	1208.85	–
293.15 K, 10000 kPa	1209.74	–
293.15 K, 12000 kPa	1210.69	–
293.15 K, 14000 kPa	1211.59	–
293.15 K, 20000 kPa	1214.19	–
293.15 K, 30000 kPa	1218.46	–
293.15 K, 40000 kPa	1222.59	–
293.15 K, 50000 kPa	1226.61	–
293.15 K, 60000 kPa	1230.53	–
293.85 K, 120 kPa	–	125.5
293.85 K, 710 kPa	–	126.4
293.85 K, 1690 kPa	–	127.1
293.85 K, 2640 kPa	–	128.5
293.85 K, 4150 kPa	–	130.9
293.85 K, 6130 kPa	–	132.7
293.85 K, 8200 kPa	–	134.9
293.85 K, 10200 kPa	–	137.4
293.85 K, 12000 kPa	–	142.1
293.85 K, 12230 kPa	–	143.2
293.85 K, 14330 kPa	–	146.1
293.85 K, 14700 kPa	–	146
298.15 K, 100 kPa	1201.64	–
298.15 K, 2000 kPa	1202.53	–
298.15 K, 4000 kPa	1203.45	–
298.15 K, 6000 kPa	1204.39	–
298.15 K, 8000 kPa	1205.3	–
298.15 K, 10000 kPa	1206.22	–
298.15 K, 12000 kPa	1207.12	–
298.15 K, 14000 kPa	1208	–
298.15 K, 20000 kPa	1210.64	–
298.15 K, 30000 kPa	1214.97	–
298.15 K, 40000 kPa	1219.15	–
298.15 K, 50000 kPa	1223.24	–
298.15 K, 60000 kPa	1227.21	–
303.15 K, 100 kPa	1198.09	–
303.15 K, 120 kPa	–	78.1
303.15 K, 770 kPa	–	80
303.15 K, 1680 kPa	–	82.4
303.15 K, 2000 kPa	1198.98	–
303.15 K, 2700 kPa	–	83.3
303.15 K, 4000 kPa	1199.92	–
303.15 K, 4170 kPa	–	84.4
303.15 K, 6000 kPa	1200.85	–
303.15 K, 6240 kPa	–	85.1
303.15 K, 6290 kPa	–	85
